Experimental data published in patent US8426429B2, “2-amino-quinazoline derivatives useful as inhibitors of β-secretase (BACE)” (Jansssen Pharmaceutica N.V., priority 2004, dated 2013).

Molecular target: T1, β-secretase (BACE) (Homo sapiens, UniProt P56817)
T1 construct: purchased Panvera
Assay: BACE FS1 % Inhibition Assay
Format: biochemical
How it was run: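 Percent inhibition per compound concentration was referenced to vehicle-treated enzyme and no-enzyme wells. Enzyme at a 4 μg/mL working stock plus compound was mixed for 20 min at room temperature before the FS1 substrate (300 μg/mL working stock) was added for a 1 h room-temperature reaction.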

T1 sequence (P56817 46-501): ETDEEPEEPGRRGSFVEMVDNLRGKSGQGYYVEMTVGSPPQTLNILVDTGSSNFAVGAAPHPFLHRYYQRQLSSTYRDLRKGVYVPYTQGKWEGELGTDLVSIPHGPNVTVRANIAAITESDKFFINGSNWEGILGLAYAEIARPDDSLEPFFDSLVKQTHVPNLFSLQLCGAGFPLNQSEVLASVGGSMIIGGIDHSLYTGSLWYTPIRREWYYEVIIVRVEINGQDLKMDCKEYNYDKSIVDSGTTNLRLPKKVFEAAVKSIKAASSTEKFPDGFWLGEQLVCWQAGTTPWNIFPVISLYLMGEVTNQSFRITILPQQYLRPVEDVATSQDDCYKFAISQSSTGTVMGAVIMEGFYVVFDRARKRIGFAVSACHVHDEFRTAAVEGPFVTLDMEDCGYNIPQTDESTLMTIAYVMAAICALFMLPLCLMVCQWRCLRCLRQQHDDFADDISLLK

Compound	% Inhibition (FS) (0.3 μM compound, FS1 substrate) [%]	% Inhibition (FS) (1 μM compound, FS1 substrate) [%]	% Inhibition (FS) (3 μM compound, FS1 substrate) [%]	% Inhibition (FS) (0.3 μM test compound) [%]	% Inhibition (FS) (1 μM test compound) [%]	% Inhibition (FS) (3 μM test compound) [%]	% Inhibition (FS) (10 μM test compound) [%]
COC1CCCC(C(=O)NCCN2Cc3cc(C4=CCCC4)ccc3N=C2N)C1 (stereo not shown) [Compound 706]	<30	<30	<30	–	–	–	–
CCCCC(CC)C(=O)NCC(C1CCCCC1)N1Cc2cc(Oc3ccccc3)ccc2N=C1N (stereo not shown) [Compound 303]	–	–	–	<30	70	109	–
CCCC(CCC)C(=O)N1CCC(N2Cc3cc(Oc4ccccc4)ccc3N=C2N)CC1 [Compound 523]	–	–	–	<30	<30	58	–
Cc1ccc(Sc2ccc3c(c2)CN(Cc2cccc(C(=O)N(C)C4CCCCC4)c2)C(N)=N3)cc1C [Compound 408]	–	–	–	<30	34	95	–
CCCC(CCCC(=O)NC1CCCCCC1)N1Cc2cc(Oc3ccccc3)ccc2N=C1N (stereo not shown) [Compound 137]	–	–	–	–	–	82	107
COc1ccc2c(c1)C(CC(=O)N(C)C1CCCCC1)CC2N1Cc2cc(Oc3ccccc3)ccc2N=C1N (stereo not shown) [Compound 146]	–	–	–	–	–	<30	39
NC1=Nc2ccc(-c3cnc4ccccc4c3)cc2CN1CCNC(=O)C1CCCC1 [Compound 671]	<30	30	<30	–	–	–	–
NC1=Nc2ccc(-c3cncnc3)cc2CN1CCNC(=O)C1CCCCC1 [Compound 575]	–	–	–	<30	<30	<30	–
CN(C(=O)CCC(c1ccc(Cl)cc1)N1Cc2cc(Oc3ccccc3)ccc2N=C1N)C1CCCCC1 (stereo not shown) [Compound 297]	–	–	–	<30	76	109	–
COc1ccccc1-c1ccc2c(c1)CN(CCNC(=O)C1CCOCC1)C(N)=N2 [Compound 697]	<30	<30	63	–	–	–	–
COc1ccccc1-c1ccc2c(c1)CN(C(CCC(=O)N(C)C1CCCCC1)C1CCCCC1)C(N)=N2 (stereo not shown) [Compound 227]	–	–	–	86	109	116	–
NC1=Nc2ccc(Oc3ccccc3)cc2CN1CCCNC(=O)C1CC1 [Compound 143]	–	–	–	–	–	<30	32
CN(C(=O)c1cccc(CN2Cc3cc(Oc4ccccc4CC(N)=O)ccc3N=C2N)c1)C1CCCCC1 [Compound 235]	–	–	–	<30	46	<30	–
CN(C(=O)c1cccc(CN2Cc3cc(Sc4ccc5ccccc5c4)ccc3N=C2N)c1)C1CCCCC1 [Compound 415]	–	–	–	<30	<30	63	–
Cc1ccccc1-c1ccc2c(c1)CN(CCNC(=O)CC(C)C(F)(F)F)C(N)=N2 (stereo not shown) [Compound 679]	78	99	–	–	–	–	–
Cc1ccccc1-c1ccc2c(c1)CN(CCNC(=O)C1CCC1)C(N)=N2 [Compound 656]	–	–	–	56	87	104	–
COc1ccccc1-c1ccc2c(c1)CN(CCNC(=O)CCCN)C(N)=N2 [Compound 494]	–	–	–	<30	<30	<30	–
COc1ccccc1-c1cc2c(cc1F)CN(CCC(=O)NC1C3CC4CC(C3)CC1C4)C(N)=N2 (stereo not shown) [Compound 620]	–	–	–	<30	<30	37	–
CN(C(=O)CCC(C1CCCCC1)N1Cc2cc(Oc3ccccc3)ccc2N=C1N)C1CCC(O)CC1 (stereo not shown) [Compound 639]	–	–	–	<30	<30	48	–

Compound	% Inhibition (FS) (0.3 μM compound, FS1 substrate) [%]	% Inhibition (FS) (1 μM compound, FS1 substrate) [%]	% Inhibition (FS) (3 μM compound, FS1 substrate) [%]	% Inhibition (FS) (0.3 μM test compound) [%]	% Inhibition (FS) (1 μM test compound) [%]	% Inhibition (FS) (3 μM test compound) [%]	% Inhibition (FS) (10 μM test compound) [%]
COC1CCCC(C(=O)NCCN2Cc3cc(-c4ccccc4)ccc3N=C2N)C1 (stereo not shown) [Compound 703]	<30	46	83	–	–	–	–
CC(=O)Nc1ccc(C(=O)NCCN2Cc3cc(-c4cccc(CO)c4)ccc3N=C2N)cc1 [Compound 593]	–	–	–	<30	<30	<30	–
CN(C(=O)c1cccc(CN2Cc3cc(Nc4ccc5c(c4)OCO5)ccc3N=C2N)c1)C1CCCCC1 [Compound 441]	–	–	–	<30	29	48	–
CC(=O)N1CCC(C(=O)NCCN2Cc3cc(-c4ccccc4)ccc3N=C2N)CC1 [Compound 702]	<30	<30	<30	–	–	–	–
NC1=Nc2ccc(Oc3ccccc3)cc2CN1Cc1cccc(C(=O)N2CCCC3CCCCC32)c1 (stereo not shown) [Compound 212]	–	–	–	<30	<30	32	–
CCCC(=O)NCCN1Cc2cc(-c3cnc4ccccc4c3)ccc2N=C1N [Compound 673]	34	<30	<30	–	–	–	–
NC1=Nc2ccc(Oc3ccccc3)cc2CN1C(CC(=O)NC1CCCCC1)C1CCCCC1 (stereo not shown) [Compound 300]	–	–	–	<30	<30	77	–
CC(=O)Nc1ccc(C(=O)NCCN2Cc3cc(-c4cccc(C(F)(F)F)c4)ccc3N=C2N)cc1 [Compound 594]	–	–	–	<30	<30	<30	–
CCCCCCCCCC(=O)NCCN1Cc2cc(Oc3ccccc3)ccc2N=C1N [Compound 142]	–	–	–	–	–	<30	38
CC(c1ccccc1)c1ccc2c(c1)CN(Cc1cccc(C(=O)N(C)C3CCCCC3)c1)C(N)=N2 (stereo not shown) [Compound 332]	–	–	–	<30	<30	<30	–
CN(C(=O)c1cccc(CN2Cc3cc(-c4ccccc4-c4ccccc4)ccc3N=C2N)c1)C1CCCCC1 [Compound 321]	–	–	–	−33	<30	<30	–
NC1=Nc2ccc(Oc3ccccc3)cc2CN1C(CC(=O)NC1C2CC3CC(C2)CC1C3)C1CCCCC1 (stereo not shown) [Compound 314]	–	–	–	<30	45	85	–
CSc1ccccc1-c1ccc2c(c1)CN(CCNC(=O)C1CCCCC1)C(N)=N2 [Compound 540]	–	–	–	<30	30	84	–
NC1=Nc2ccc(Oc3ccccc3)cc2CN1C(CNC(=O)C1CCCCC1)Cc1ccc(O)cc1 (stereo not shown) [Compound 614]	–	–	–	<30	<30	<30	–
CC(C)CCC(=O)NCC(Cc1ccc(O)cc1)N1Cc2cc(Oc3ccccc3)ccc2N=C1N (stereo not shown) [Compound 615]	–	–	–	<30	<30	<30	–
NC1=Nc2ccc(-c3cccc(C(F)(F)F)c3)cc2CN1CCNC(=O)CC1CCCC1 [Compound 584]	–	–	–	<30	<30	56	–
CSc1ccc(Nc2ccc3c(c2)CN(Cc2cccc(C(=O)N(C)C4CCCCC4)c2)C(N)=N3)cc1 [Compound 442]	–	–	–	<30	58	101	–
COc1cccc(F)c1-c1ccc2c(c1)CN(CCNC(=O)C1CCC(C(F)(F)F)CC1)C(N)=N2 (stereo not shown) [Compound 700]	<30	36	85	–	–	–	–
